These results are taken from patent EP4028002B1, “AN ANTICANCER COMBINATION OF CHIDAMIDE AND CELECOXIB” (Great Novel Therapeutics Biotech & Medicals Corporation, priority 2019, dated 2021).

Molecules are shown by their SMILES.

Data set [1] can be described thus: Saturation solubility study in ddH2O. The class given is physicochemical. The following applies: 25°C, 90 minutes; for Saturation & Solubility: 100 rpm, mean ± SD of triplicates, per batch; for saturation solubility (water solubility): independent batches. On the procedure: Determination of Saturation Solubility of Chidamide-HCl, Chidamide-H2SO4, and Celecoxib-Na Salts. Sample of 5 mg of chidamide-HCl, chidamide-H2SO4, or celecoxib-Na salts was added to 5 ml volumetric flasks containing ddH2O and shook at 100 rpm in an incubator at 25°C for 90 minutes. The resulting suspension was filtered through a 0.22 µm filter. The concentrations of chidamide-HCl, chidamide-H2SO4, and celecoxib-Na salts were determined spectrophotometrically at 256 nm, 256 nm, and 253 nm, respectively. The saturation solubility of each sample was determined in triplicates and the mean value and standard deviation were reported. Preparation of standard curves is described as below.

The conditions of data set [2]: low solubility and high permeability; cited from earlier work.

Consider `Cc1ccc(-c2cc(C(F)(F)F)nn2-c2ccc(S(N)(=O)=O)cc2)cc1` [Celecoxib-API, 4-[5-(4-Methylphenyl)-3-(trifluoromethyl)pyrazol-1-yl]benzenesulfonamide], for which, in data set [1], the “Saturation & Solubility” value is on record as “BDL” and the “saturation solubility (water solubility)” value is recorded as “water-insoluble”. Besides, the “BCS (biopharmaceutical classification system) class” value in data set [2] was “class II”.
For the compound `Nc1cc(F)ccc1NC(=O)c1ccc(CNC(=O)/C=C/c2cccnc2)cc1` [Chidamide-API, 4-(((E)-3-(pyridin-3-yl)acrylamido)methyl)-N-(2-amino-4-fluorophenyl)benzamide], in data set [1], the “Saturation & Solubility” value is given as “BDL” and the “saturation solubility (water solubility)” value was “water-insoluble”.
